Data: US20090317383A1, “CANCER TREATMENT METHOD” (priority 2004, published 2009)

What was measured:
BT474 tumors = assay: BT474 vs. Lapatinib and Docetaxel Combination (mice with BT474 tumors); format: in vivo
Procedure: Mice with BT474 tumors were administered lapatinib alone (200 and 100 mg/kg; SID×21 Days, or 2 days and 1 day before docetaxel) and in combination with docetaxel (25 and 50 mg/kg IP, once weekly×3 weeks).
In the first experiment there were no deaths, and in the second experiment there was one death in a group of eight mice receiving docetaxel (25 mg/kg) and lapatinib (200 mg/kg×21 days). All surviving mice rapidly regained body weight when dosing was completed. The treatment groups and results follow.

EGFR and erbB2 kinases = settings: Rusnak et al., 2001b; Xia et al., 2002; cited from earlier work
[1] = test system: tumor cells overexpressing EGFR or erbB2; settings: Rusnak et al., 2001b; Xia et al., 2002; cited from earlier work
[2] = test system: MCF-7 human breast cancer cells; assay: Cell growth, MTT tetrazolium dye assay; format: cell-based; settings: 1-10 uM
Procedure: (§1) The effect of a combination of lapatanib with a Bcl-2 inhibitor (HA14-1) on the growth of MCF-7 human breast cancer cells, a HER-2/neu transfected MCF-7 cell line and a tamoxifen (TAM) resistant MCF-7 cell line was examined. Cell growth was determined using the MTT tetrazolium dye assay. Cells were dosed with Lapatinib and HA14-1 as monotherapies.

[3] = test system: HER-2/neu transfected MCF-7 cell line; assay: Cell growth, MTT tetrazolium dye assay; format: cell-based, human; settings: 1-10 uM
Procedure: as §1

[4] = test system: tamoxifen (TAM) resistant MCF-7 cell line; assay: Cell growth, MTT tetrazolium dye assay; format: cell-based, human; settings: 1-10 uM
Procedure: as §1

## CC(=O)O[C@@]12CO[C@@H]1C[C@H](O)[C@@]1(C)C(=O)[C@H](O)C3=C(C)[C@@H](OC(=O)[C@H](O)[C@@H](NC(=O)OC(C)(C)C)c4ccccc4)C[C@@](O)([C@@H](OC(=O)c4ccccc4)[C@H]21)C3(C)C [docetaxel, (2R,3S)-N-carboxy-3-phenylisoserine,N-tert-butyl ester, 13-ester with 5β-20-epoxy-1,2α,4,7β,10β,13α-hexahydroxytax-11-en-9-one 4-acetate 2-benzoate, trihydrate]
BT474 tumors; 25 and 50 mg/kg, after 3 weekly doses, both experiments
  Body weight: caused weight loss
BT474 tumors; Tax-25 (25 mg/kg IP), Days 3, 10, 17
  % Inhibition: 77%
BT474 tumors; Tax-50 (50 mg/kg IP), Days 3, 10, 17
  % Inhibition: 98%
BT474 tumors; docetaxel at 50 mg/kg, both experiments
  Efficacy against BT474 tumors (in words): highly effective

## CS(=O)(=O)CCNCc1ccc(-c2ccc3ncnc(Nc4ccc(OCc5cccc(F)c5)c(Cl)c4)c3c2)o1 [GW572016, N-{3-chloro-4-[(3-fluorobenzyl)oxy]phenyl}-6-[5-({[2-(methanesulphonyl)ethyl]amino}methyl)-2-furyl]-4-quinazolinamine]
EGFR and erbB2 kinases
  Kinase inhibition in human xenograft studies: dose-dependent kinase inhibition
[1]
  Selectivity of tumor cell inhibition: selectively inhibits tumor cells overexpressing EGFR or erbB2

## CS(=O)(=O)CCNCc1ccc(-c2ccc3ncnc(Nc4ccc(OCc5cccc(F)c5)c(Cl)c4)c3c2)o1.Cc1ccc(S(=O)(=O)O)cc1 [lapatinib, N-{3-Chloro-4-[(3-fluorobenzyl)oxy]phenyl}-6-[5-({[2-(methanesulphonyl)ethyl]amino}methyl)-2-furyl]-4-quinazolinamine ditosylate monhydrate]
BT474 tumors; GW016-100 (100 mg/kg), sid × 21 days
  % Inhibition: 79%
BT474 tumors; GW016-200 (200 mg/kg), sid × 21 Days
  % Inhibition: 102%
BT474 tumors; GW016-200, twice weekly on consecutive days × 3 weeks
  % Inhibition: 58%
[2]
  Cell growth inhibition, monotherapy: dose-dependent growth inhibition
[3]
  Cell growth inhibition, monotherapy: dose-dependent growth inhibition
[4]
  Cell growth inhibition, monotherapy: dose-dependent growth inhibition

## CCOC(=O)C1=C(N)Oc2ccc(Br)cc2C1C(C#N)C(=O)OCC (stereo not drawn) [HA14-1, ethyl [2-amino-6-bromo-4-(1-cyano-2-ethoxy-2oxoethyl)]4H-chromene-3-carboxylate, reference compound]
[2]
  Cell growth inhibition, monotherapy: dose-dependent growth inhibition
[3]
  Cell growth inhibition, monotherapy: dose-dependent growth inhibition
[4]
  Cell growth inhibition, monotherapy: dose-dependent growth inhibition
